Laboratory results taken from patent US20260085066A1, “LEUCINE RICH REPEAT KINASE 2 (LRRK2) DEGRADING COMPOUNDS AND ASSOCIATED METHODS OF USE” (Arvinas Operations, Inc., priority 2022, published 2026).

Target: T1, WT LRRK2 (Homo sapiens, UniProt Q5S007)
T1 construct: endogenous in cells; host or cells: HEK293 cells with HiBit knocked into the endogenous LRRK2 gene, stably expressing firefly luciferase
Assay: LRRK2 degradation HiBit assay in HEK293 cells (Nano-Glo Dual-Luciferase)
Type: cell-based
Conditions: HiBit-tagged LRRK2 in HEK293 cells, 24 hours compound treatment

T1 sequence (Q5S007 whole entry): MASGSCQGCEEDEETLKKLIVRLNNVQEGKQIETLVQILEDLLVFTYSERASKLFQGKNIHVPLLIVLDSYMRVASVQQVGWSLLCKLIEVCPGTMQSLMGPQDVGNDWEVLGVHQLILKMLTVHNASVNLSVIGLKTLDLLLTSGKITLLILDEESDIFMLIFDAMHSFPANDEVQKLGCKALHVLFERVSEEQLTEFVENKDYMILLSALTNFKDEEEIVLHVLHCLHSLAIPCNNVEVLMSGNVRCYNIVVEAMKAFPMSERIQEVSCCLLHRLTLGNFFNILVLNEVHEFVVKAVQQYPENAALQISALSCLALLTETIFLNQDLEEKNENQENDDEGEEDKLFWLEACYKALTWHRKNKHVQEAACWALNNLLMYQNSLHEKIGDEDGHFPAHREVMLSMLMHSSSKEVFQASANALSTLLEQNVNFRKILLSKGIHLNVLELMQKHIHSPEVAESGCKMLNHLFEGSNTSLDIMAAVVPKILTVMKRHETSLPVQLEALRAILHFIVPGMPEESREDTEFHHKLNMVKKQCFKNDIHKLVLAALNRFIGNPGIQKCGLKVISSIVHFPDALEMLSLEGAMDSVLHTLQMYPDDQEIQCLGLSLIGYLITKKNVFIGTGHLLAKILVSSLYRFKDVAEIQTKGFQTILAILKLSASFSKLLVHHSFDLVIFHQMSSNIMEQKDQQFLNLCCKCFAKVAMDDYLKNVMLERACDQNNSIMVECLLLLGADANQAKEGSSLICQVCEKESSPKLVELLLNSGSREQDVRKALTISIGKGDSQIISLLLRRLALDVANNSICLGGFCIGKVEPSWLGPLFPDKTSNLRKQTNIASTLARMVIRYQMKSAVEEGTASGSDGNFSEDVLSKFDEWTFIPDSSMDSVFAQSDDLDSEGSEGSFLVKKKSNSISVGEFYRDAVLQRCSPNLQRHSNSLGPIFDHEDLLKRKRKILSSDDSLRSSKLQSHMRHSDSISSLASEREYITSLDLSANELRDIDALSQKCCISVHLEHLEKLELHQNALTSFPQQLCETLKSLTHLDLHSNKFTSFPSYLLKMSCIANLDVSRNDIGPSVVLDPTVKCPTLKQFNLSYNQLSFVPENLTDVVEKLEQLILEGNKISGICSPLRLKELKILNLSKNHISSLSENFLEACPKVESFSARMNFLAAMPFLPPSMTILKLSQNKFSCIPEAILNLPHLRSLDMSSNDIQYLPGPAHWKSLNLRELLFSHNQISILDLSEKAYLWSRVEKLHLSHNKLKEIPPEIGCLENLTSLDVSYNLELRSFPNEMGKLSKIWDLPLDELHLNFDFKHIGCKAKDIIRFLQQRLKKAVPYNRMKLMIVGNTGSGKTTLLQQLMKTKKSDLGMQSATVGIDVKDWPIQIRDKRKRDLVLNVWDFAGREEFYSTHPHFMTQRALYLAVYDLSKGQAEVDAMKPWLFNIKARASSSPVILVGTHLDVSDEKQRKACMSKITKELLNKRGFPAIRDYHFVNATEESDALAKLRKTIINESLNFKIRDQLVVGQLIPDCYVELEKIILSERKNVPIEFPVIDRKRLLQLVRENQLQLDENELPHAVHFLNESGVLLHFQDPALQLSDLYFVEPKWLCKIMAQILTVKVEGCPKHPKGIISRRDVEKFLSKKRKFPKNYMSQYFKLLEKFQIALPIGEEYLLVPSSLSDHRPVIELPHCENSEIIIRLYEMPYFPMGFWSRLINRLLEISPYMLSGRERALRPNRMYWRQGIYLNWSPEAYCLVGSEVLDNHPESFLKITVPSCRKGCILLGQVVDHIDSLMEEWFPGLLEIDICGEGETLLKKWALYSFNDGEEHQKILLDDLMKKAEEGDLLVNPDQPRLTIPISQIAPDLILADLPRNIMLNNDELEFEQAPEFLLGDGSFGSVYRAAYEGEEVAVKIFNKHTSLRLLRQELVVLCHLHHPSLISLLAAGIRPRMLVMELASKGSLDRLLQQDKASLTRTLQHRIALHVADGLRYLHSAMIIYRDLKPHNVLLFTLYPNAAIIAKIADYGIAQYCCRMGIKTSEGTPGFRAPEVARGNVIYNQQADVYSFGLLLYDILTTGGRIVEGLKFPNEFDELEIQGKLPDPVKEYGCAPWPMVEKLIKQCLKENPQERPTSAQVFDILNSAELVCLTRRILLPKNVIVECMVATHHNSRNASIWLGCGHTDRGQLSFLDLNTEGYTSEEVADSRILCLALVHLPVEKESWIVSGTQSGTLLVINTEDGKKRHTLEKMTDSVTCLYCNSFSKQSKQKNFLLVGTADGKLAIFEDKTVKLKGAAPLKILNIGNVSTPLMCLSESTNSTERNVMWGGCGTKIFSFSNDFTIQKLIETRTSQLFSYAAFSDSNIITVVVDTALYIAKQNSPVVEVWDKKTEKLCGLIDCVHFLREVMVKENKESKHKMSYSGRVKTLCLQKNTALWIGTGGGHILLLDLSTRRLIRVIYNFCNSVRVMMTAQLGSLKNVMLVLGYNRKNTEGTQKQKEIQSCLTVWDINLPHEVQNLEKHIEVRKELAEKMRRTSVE

SMILES | Dmax
CC1(Oc2ccc3[nH]nc(-c4cc(N5CCO[C@H](CN6CCN(CC7CCN(c8ccc9c(c8F)CN(C8CCC(=O)NC8=O)C9=O)CC7)CC6(C)C)C5)ncn4)c3c2)CC1 (some centres unmarked) [Example 3] | 50 to 70%
COc1c(N2CCC(O[C@H]3C[C@H](N4CCC5(CC4)CN(c4cc(-c6[nH]nc7ccc(OC8(C)CC8)cc67)ncn4)C5)C3)CC2)ccc2c1CN(C1CCC(=O)NC1=O)C2=O (some centres unmarked) [Example 4, 3-[4-methoxy-5-[4-[3-[2-[6-[5-(1-methylcyclopropoxy)-2H-indazol-3-yl]pyrimidin-4-yl]-2,7-diazaspiro[3.5]nonan-7-yl]cyclobutoxy]-1-piperidyl]-1-oxo-isoindolin-2-yl]piperidine-2,6-dione] | 50 to 70%
CC1(Oc2ccc3[nH]nc(-c4cc(N5CCN(C[C@H]6CC[C@H](CN7CCN(c8ccc9c(c8F)CN(C8CCC(=O)NC8=O)C9=O)CC7)OC6)CC5)ncn4)c3c2)CC1 (some centres unmarked) [Example 10] | 50 to 70%
CC1(Oc2ccc3[nH]nc(-c4cc(N5CCC(O[C@@H]6CCN(CC7CCN(c8ccc9c(c8F)CN(C8CCC(=O)NC8=O)C9=O)CC7)C(C)(C)C6)CC5)ncn4)c3c2)CC1 (some centres unmarked) [Example 11] | 50 to 70%
CC1(Oc2ccc3[nH]nc(-c4cc(N5CCN(C[C@H]6CC[C@H](OC7CCN(c8ccc9c(c8)CN(C8CCC(=O)NC8=O)C9=O)CC7)CC6)CC5)ncn4)c3c2)CC1 (some centres unmarked) [Example 14, 3-[5-[4-[4-[[4-[6-[5-(1-methylcyclopropoxy)-1H-indazol-3-yl]pyrimidin-4-yl]piperazin-1-yl]methyl]cyclohexoxy]-1-piperidyl]-1-oxo-isoindolin-2-yl]piperidine-2,6-dione] | 50 to 70%
CC1(Oc2ccc3[nH]nc(-c4cc(N5CCO[C@@H](CN6CCN(CC7CCN(c8ccc9c(c8F)CN(C8CCC(=O)NC8=O)C9=O)CC7)CC6(C)C)C5)cnn4)c3c2)CC1 (some centres unmarked) [Example 16] | 50 to 70%
Cc1cc(N2CCC(O[C@H]3CC[C@H](CN4CCN(c5cc(-c6n[nH]c7ccc(OC8(C)CC8)cc67)ncn5)CC4)CC3)CC2)c(F)c2c1C(=O)N(C1CCC(=O)NC1=O)C2 (some centres unmarked) [Example 18, 3-(4-fluoro-7-methyl-5-(4-(((1r,4r)-4-((4-(6-(5-(1-methylcyclopropoxy)-1H-indazol-3-yl)pyrimidin-4-yl)piperazin-1-yl)methyl)cyclohexyl)oxy)piperidin-1-yl)-1-oxoisoindolin-2-yl)piperidine-2,6-dione] | ≥ 70%
Cc1cc(N2CCC(CN3CCN(CC4CCN(c5cc(-c6n[nH]c7ccc(OC8(C)CC8)cc67)ncn5)CC4)C(C)(C)C3)CC2)c(F)c2c1C(=O)N(C1CCC(=O)NC1=O)C2 (centres unmarked) [Example 19] | 50 to 70%
Cc1cc(N2CCC(O[C@H]3CC[C@@H](CN4CCN(c5cc(-c6n[nH]c7ccc(OC8(C)CC8)cc67)ncn5)CC4)CC3)CC2)c(F)c2c1C(=O)N(C1CCC(=O)NC1=O)C2 (some centres unmarked) [Example 20, 3-(4-fluoro-7-methyl-5-(4-(((1s,4s)-4-((4-(6-(5-(1-methylcyclopropoxy)-1H-indazol-3-yl)pyrimidin-4-yl)piperazin-1-yl)methyl)cyclohexyl)oxy)piperidin-1-yl)-1-oxoisoindolin-2-yl)piperidine-2,6-dione] | < 50%
CC1(Cc2ccc3[nH]nc(-c4cc(N5CCC(CN6CCN(CC7CCN(c8ccc9c(c8F)CN(C8CCC(=O)NC8=O)C9=O)CC7)CC6)CC5)ncn4)c3c2)CC1 (centres unmarked) [Example 21] | 50 to 70%
CC1(Oc2ccc3[nH]nc(-c4cc(N5CCC(C[C@H]6CC[C@@H](OC7CCN(c8ccc9c(c8F)CN(C8CCC(=O)NC8=O)C9=O)CC7)CC6)CC5)ncn4)c3c2)CC1 (some centres unmarked) [Example 22, 3-[4-fluoro-5-[4-[4-[[1-[6-[5-(1-methylcyclopropoxy)-1H-indazol-3-yl]pyrimidin-4-yl]-4-piperidyl]methyl]cyclohexoxy]-1-piperidyl]-1-oxo-isoindolin-2-yl]piperidine-2,6-dione] | ≥ 70%
CC1(Oc2ccc3[nH]nc(-c4cc(N5CCC(C[C@H]6CC[C@H](OC7CCN(c8ccc9c(c8F)CN(C8CCC(=O)NC8=O)C9=O)CC7)CC6)CC5)ncn4)c3c2)CC1 (some centres unmarked) [Example 23] | 50 to 70%
CC1(Cc2ccc3[nH]nc(-c4cc(N5CCC(OC6CCN(CC7CCN(c8ccc9c(c8F)CN(C8CCC(=O)NC8=O)C9=O)CC7)CC6)CC5)ncn4)c3c2)CC1 (centres unmarked) [Example 24] | < 50%
CC1(Cc2ccc3[nH]nc(-c4cc(N5CCC(CN6CCN(CC7CCN(c8ccc9c(c8F)CN(C8CCC(=O)NC8=O)C9=O)CC7)CC6(C)C)CC5)ncn4)c3c2)CC1 (centres unmarked) [Example 25] | < 50%
CC1(Cc2ccc3[nH]nc(-c4cc(N5CCC(CN6CCN(CC7CCN(c8ccc9c(c8F)CN(C8CCC(=O)NC8=O)C9=O)CC7)C(C)(C)C6)CC5)ncn4)c3c2)CC1 (centres unmarked) [Example 26] | 50 to 70%
CC1(Oc2ccc3[nH]nc(-c4cc(N5CCC(O[C@H]6CC[C@@H](CC7CCN(c8ccc9c(c8F)CN(C8CCC(=O)NC8=O)C9=O)CC7)CC6)CC5)ncn4)c3c2)CC1 (some centres unmarked) [Example 27] | 50 to 70%
COc1c(N2CCC(O[C@H]3CC[C@H](CN4CCN(c5cc(-c6[nH]nc7ccc(CC8(C)CC8)cc67)ncn5)CC4)CC3)CC2)ccc2c1CN(C1CCC(=O)NC1=O)C2=O (some centres unmarked) [Example 28] | 50 to 70%
CC1(Oc2ccc3[nH]nc(-c4cc(N5CCC(O[C@H]6CC[C@H](CC7CCN(c8ccc9c(c8F)CN(C8CCC(=O)NC8=O)C9=O)CC7)CC6)CC5)ncn4)c3c2)CC1 (some centres unmarked) [Example 29] | ≥ 70%

The next lines start with the values.

Dmax | SMILES
50 to 70% | CC1(Oc2ccc3[nH]nc(-c4cc(N5CCO[C@H](CN6CCN(CC7CCN(c8ccc9c(c8F)CN(C8CCC(=O)NC8=O)C9=O)CC7)CC6)C5)ncn4)c3c2)CC1 (stereo partly drawn) [Example 1, 3-[4-fluoro-5-[4-[[4-[[(2R)-4-[6-[5-(1-methylcyclopropoxy)-1H-indazol-3-yl]pyrimidin-4-yl]morpholin-2-yl]methyl]piperazin-1-yl]methyl]-1-piperidyl]-1-oxo-isoindolin-2-yl]piperidine-2,6-dione]
50 to 70% | CC1(Oc2ccc3[nH]nc(-c4cc(N5CCO[C@@H](CN6CCN(CC7CCN(c8ccc9c(c8F)CN(C8CCC(=O)NC8=O)C9=O)CC7)CC6)C5)ncn4)c3c2)CC1 (some centres unmarked) [Example 2]
50 to 70% | CC1(Oc2ccc3[nH]nc(-c4cc(N5CCN(C[C@@H]6CN(CCC7CCN(c8ccc9c(c8F)CN(C8CCC(=O)NC8=O)C9=O)CC7)CCO6)CC5)ncn4)c3c2)CC1 (some centres unmarked) [Example 5]
50 to 70% | CC1(Oc2ccc3[nH]nc(-c4cc(N5CCN(CCC6(F)CCN(CC7CCN(c8ccc9c(c8F)CN(C8CCC(=O)NC8=O)C9=O)CC7)CC6)CC5)ncn4)c3c2)CC1 (centres unmarked) [Example 6, 3-[4-fluoro-5-[4-[[4-fluoro-4-[2-[4-[6-[5-(1-methylcyclopropoxy)-1H-indazol-3-yl]pyrimidin-4-yl]piperazin-1-yl]ethyl]-1-piperidyl]methyl]-1-piperidyl]-1-oxo-isoindolin-2-yl]piperidine-2,6-dione]
50 to 70% | CC1(Oc2ccc3[nH]nc(-c4cc(N5CCC(CN6CC[C@@H](CN7CCN(c8ccc9c(c8F)CN(C8CCC(=O)NC8=O)C9=O)CC7)[C@@H](F)C6)CC5)ncn4)c3c2)CC1 (some centres unmarked) [Example 7]
50 to 70% | CC1(Oc2ccc3[nH]nc(-c4cc(N5CCN(CCN6CCN(CC7CCN(c8ccc9c(c8F)CN(C8CCC(=O)NC8=O)C9=O)CC7)CC6)CC5)ncn4)c3c2)CC1 (centres unmarked) [Example 8]
50 to 70% | CC1(Oc2ccc3[nH]nc(-c4cc(N5CCN(C[C@@H]6CCN(CC7CCN(c8ccc9c(c8F)CN(C8CCC(=O)NC8=O)C9=O)CC7)C[C@@H]6F)CC5)ncn4)c3c2)CC1 (some centres unmarked) [Example 9]
50 to 70% | CC1(Oc2ccc3[nH]nc(-c4cc(N5CCN(C[C@H]6CN(CC7CCN(c8ccc9c(c8F)CN(C8CCC(=O)NC8=O)C9=O)CC7)CCO6)CC5)ncn4)c3c2)CC1 (stereo partly drawn) [Example 12, 3-[4-fluoro-5-[4-[[(2S)-2-[[4-[6-[5-(1-methylcyclopropoxy)-1H-indazol-3-yl]pyrimidin-4-yl]piperazin-1-yl]methyl]morpholin-4-yl]methyl]-1-piperidyl]-1-oxo-isoindolin-2-yl]piperidine-2,6-dione]
50 to 70% | CC1(Oc2ccc3[nH]nc(-c4cc(N5CCN(C[C@@H]6CN(CC7CCN(c8ccc9c(c8F)CN(C8CCC(=O)NC8=O)C9=O)CC7)CCO6)CC5)ncn4)c3c2)CC1 (some centres unmarked) [Example 13]
50 to 70% | CC1(Oc2ccc3[nH]nc(-c4cc(N5CCN(CC(F)(F)C6CCN(CC7CCN(c8ccc9c(c8F)CN(C8CCC(=O)NC8=O)C9=O)CC7)CC6)CC5)ncn4)c3c2)CC1 (centres unmarked) [Example 15]
50 to 70% | CC1(Oc2ccc3[nH]nc(-c4cc(N5CCN(C[C@H]6CN(CCC7CCN(c8ccc9c(c8F)CN(C8CCC(=O)NC8=O)C9=O)CC7)CCO6)CC5)ncn4)c3c2)CC1 (some centres unmarked) [Example 17]
